# Key:
# c-Kit (V654A) = molecular target: T1, c-Kit (V654A) (Homo sapiens, UniProt P10721, V654A); test: KinaseProfiler kinase activity assay; type: biochemical
# T1 construct: purchased EMD Millipore Corp. (KinaseProfiler service)
# Description: (§4) KinaseProfiler™ assays (EMD Millipore Corp. Billerica, Mass., USA) are radioligand binding assays with purified or partially-purified human kinases. Most of the KinaseProfiler™ assays are conducted in 20 mM MOPS, 1 mM EDTA, 0.01% Brij-35, 5% Glycerol, 0.1% b-mercaptoethanol, 1 mg/mL BSA. The assay involves the transfer of ^32P from γ-^32P-ATP to the target peptide, followed by washing and trapping of the labeled peptide on a filter. The concentration of γ-^32P-ATP used was at the established Km for ATP.
# plasma protein = test: Plasma protein binding; type: in vitro ADME; conditions: in animals and humans
# Abl(H396P) = Abl(H396P) (Homo sapiens, UniProt P00519, H396P); test: KinomeScan competition binding assay; set-up: purchased DiscoveRx Corporation (KinomeScan service)
# Description: (§1) Detailed assay methodologies can be found in the relevant references cited herein, or in the KinaseProfiler Service Assay Protocols (v54, 2011) available from EMD Millipore (www.emdmillipore.com), or from the KinomeScan website (www.kinomescan.com), as appropriate. (For a more detailed description of KINOMEscan's assay technology, see: Fabian et al. A small molecule-kinase interaction map for clinical kinase inhibitors. Nat. Biotechnol. 23, 329-336 (2005)). A summary is provided below.
# (§2) KinomeScan™ assays (DiscoveRx Corporation, San Diego, Calif., USA) are active-site-directed competition binding assays. […] The amount of kinase captured in test versus control samples is determined by using a qPCR method that detects the associated DNA label on each kinase molecule. Dissociation constants (Kd) for test compound-kinase interactions are calculated by measuring the amount of kinase captured on the solid support as a function of the test compound concentration.
# Abl (T315I) = Abl (T315I) (Homo sapiens, UniProt P00519, T315I); test: KinomeScan competition binding assay; set-up: purchased DiscoveRx Corporation (KinomeScan service)
# Description: as §1, §2
# TEK = TEK (Homo sapiens, UniProt Q02763); test: KinomeScan competition binding assay; set-up: purchased DiscoveRx Corporation (KinomeScan service)
# Description: as §1, §2
# Wee1 = Wee1 (Homo sapiens, UniProt P30291); test: KinomeScan competition binding assay; set-up: purchased DiscoveRx Corporation (KinomeScan service)
# Description: as §1, §2
# Abl(M351T) = Abl(M351T) (Homo sapiens, UniProt P00519, M351T); test: KinomeScan competition binding assay; set-up: purchased DiscoveRx Corporation (KinomeScan service)
# Description: as §1, §2
# Flt1 = Flt1 (Homo sapiens, UniProt P17948); test: KinomeScan competition binding assay; set-up: purchased DiscoveRx Corporation (KinomeScan service)
# Description: as §1, §2
# Abl(Y253F) = Abl(Y253F) (Homo sapiens, UniProt P00519, Y253F); test: KinomeScan competition binding assay; set-up: purchased DiscoveRx Corporation (KinomeScan service)
# Description: as §1, §2
# c-Kit (D816H) = c-Kit (D816H) (Homo sapiens, UniProt P10721, D816H); test: KinomeScan competition binding assay; set-up: purchased DiscoveRx Corporation (KinomeScan service)
# Description: as §1, §2
# Ret (V804M) = Ret (V804M) (Homo sapiens, UniProt P07949, V804M); test: KinomeScan competition binding assay; set-up: purchased DiscoveRx Corporation (KinomeScan service)
# Description: as §1, §2
# Ret (V804L) = Ret (V804L) (Homo sapiens, UniProt P07949, V804L); test: KinomeScan competition binding assay; set-up: purchased DiscoveRx Corporation (KinomeScan service)
# Description: as §1, §2
# Yes = Yes (Homo sapiens, UniProt P07947); test: KinomeScan competition binding assay; set-up: purchased DiscoveRx Corporation (KinomeScan service)
# Description: as §1, §2
# c-Kit (D816V) = c-Kit (D816V) (Homo sapiens, UniProt P10721, D816V); test: KinomeScan competition binding assay; set-up: purchased DiscoveRx Corporation (KinomeScan service)
# Description: as §1, §2
# Ret = Ret (Homo sapiens, UniProt P07949); test: KinomeScan competition binding assay; set-up: purchased DiscoveRx Corporation (KinomeScan service)
# Description: as §1, §2
# Tyro3 = Tyro3 (Homo sapiens, UniProt Q06418); test: KinomeScan competition binding assay; set-up: purchased DiscoveRx Corporation (KinomeScan service)
# Description: as §1, §2
# Stk10 = Stk10 (Homo sapiens, UniProt O94804); test: KinomeScan competition binding assay; set-up: purchased DiscoveRx Corporation (KinomeScan service)
# Description: as §1, §2
# Flt3 (D835Y) = Flt3 (D835Y) (Homo sapiens, UniProt P36888, D835Y); test: KinomeScan competition binding assay; set-up: purchased DiscoveRx Corporation (KinomeScan service)
# Description: as §1, §2
# Flt4 = Flt4 (Homo sapiens, UniProt P35916); test: KinomeScan competition binding assay; set-up: purchased DiscoveRx Corporation (KinomeScan service)
# Description: as §1, §2
# Flt3 = Flt3 (Homo sapiens, UniProt P36888); test: KinomeScan competition binding assay; set-up: purchased DiscoveRx Corporation (KinomeScan service); conditions: Flt3 wild-type
# Description: as §1, §2
# Abl(Q252H) = Abl(Q252H) (Homo sapiens, UniProt P00519, Q252H); test: KinomeScan competition binding assay; set-up: purchased DiscoveRx Corporation (KinomeScan service)
# Description: as §1, §2
# c-Kit (V560G) = molecular target: T2, c-Kit (V560G) (Homo sapiens, UniProt P10721, V560G); test: KinaseProfiler kinase activity assay; type: biochemical
# T2 construct: purchased EMD Millipore Corp. (KinaseProfiler service)
# Description: as §4
# c-Kit = c-Kit (Homo sapiens, UniProt P10721); test: biochemical
# Description: as §1, §2
# Abl = Abl (Homo sapiens, UniProt P00519); test: biochemical
# Description: as §1, §2
# TEK(Y897S) = molecular target: T3, TEK(Y897S) (Homo sapiens, UniProt Q02763, Y897S); test: KinaseProfiler kinase activity assay; type: biochemical; conditions: ATP at Km
# T3 construct: purchased EMD Millipore Corp. (KinaseProfiler service)
# Description: (§3) A summary is provided below.
# TEK(R849W) = molecular target: T4, TEK(R849W) (Homo sapiens, UniProt Q02763, R849W); test: KinaseProfiler kinase activity assay; type: biochemical; conditions: ATP at Km
# T4 construct: purchased EMD Millipore Corp. (KinaseProfiler service)
# Description: as §3
# T4 sequence (Q02763 23-1124 R849W): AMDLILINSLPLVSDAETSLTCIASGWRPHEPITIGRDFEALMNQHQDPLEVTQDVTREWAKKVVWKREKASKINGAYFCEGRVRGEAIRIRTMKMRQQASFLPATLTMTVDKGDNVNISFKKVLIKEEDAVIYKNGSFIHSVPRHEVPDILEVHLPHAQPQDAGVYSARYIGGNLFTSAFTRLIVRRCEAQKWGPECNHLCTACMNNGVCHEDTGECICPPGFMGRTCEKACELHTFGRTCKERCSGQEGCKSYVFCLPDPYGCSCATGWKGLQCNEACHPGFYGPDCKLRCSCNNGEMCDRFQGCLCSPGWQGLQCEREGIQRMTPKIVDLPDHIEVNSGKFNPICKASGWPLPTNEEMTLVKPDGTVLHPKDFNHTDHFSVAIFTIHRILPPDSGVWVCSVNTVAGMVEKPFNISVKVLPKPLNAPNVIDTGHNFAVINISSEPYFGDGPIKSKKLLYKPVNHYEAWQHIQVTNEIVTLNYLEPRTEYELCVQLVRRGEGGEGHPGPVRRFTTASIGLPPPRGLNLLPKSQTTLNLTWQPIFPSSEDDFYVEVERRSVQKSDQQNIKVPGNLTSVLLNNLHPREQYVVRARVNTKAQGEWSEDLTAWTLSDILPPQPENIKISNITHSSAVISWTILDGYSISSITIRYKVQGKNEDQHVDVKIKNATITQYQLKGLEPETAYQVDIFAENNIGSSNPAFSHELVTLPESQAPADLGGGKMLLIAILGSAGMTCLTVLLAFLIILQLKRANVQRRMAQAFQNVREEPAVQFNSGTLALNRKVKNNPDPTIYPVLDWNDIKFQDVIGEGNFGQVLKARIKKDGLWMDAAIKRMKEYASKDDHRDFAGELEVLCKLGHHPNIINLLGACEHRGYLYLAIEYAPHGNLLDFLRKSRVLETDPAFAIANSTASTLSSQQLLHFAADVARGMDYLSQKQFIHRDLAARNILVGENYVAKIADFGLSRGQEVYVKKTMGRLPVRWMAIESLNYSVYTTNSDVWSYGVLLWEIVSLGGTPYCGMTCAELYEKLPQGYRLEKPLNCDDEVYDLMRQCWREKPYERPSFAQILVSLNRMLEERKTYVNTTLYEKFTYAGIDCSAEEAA
# T2 sequence (P10721 26-976 V560G): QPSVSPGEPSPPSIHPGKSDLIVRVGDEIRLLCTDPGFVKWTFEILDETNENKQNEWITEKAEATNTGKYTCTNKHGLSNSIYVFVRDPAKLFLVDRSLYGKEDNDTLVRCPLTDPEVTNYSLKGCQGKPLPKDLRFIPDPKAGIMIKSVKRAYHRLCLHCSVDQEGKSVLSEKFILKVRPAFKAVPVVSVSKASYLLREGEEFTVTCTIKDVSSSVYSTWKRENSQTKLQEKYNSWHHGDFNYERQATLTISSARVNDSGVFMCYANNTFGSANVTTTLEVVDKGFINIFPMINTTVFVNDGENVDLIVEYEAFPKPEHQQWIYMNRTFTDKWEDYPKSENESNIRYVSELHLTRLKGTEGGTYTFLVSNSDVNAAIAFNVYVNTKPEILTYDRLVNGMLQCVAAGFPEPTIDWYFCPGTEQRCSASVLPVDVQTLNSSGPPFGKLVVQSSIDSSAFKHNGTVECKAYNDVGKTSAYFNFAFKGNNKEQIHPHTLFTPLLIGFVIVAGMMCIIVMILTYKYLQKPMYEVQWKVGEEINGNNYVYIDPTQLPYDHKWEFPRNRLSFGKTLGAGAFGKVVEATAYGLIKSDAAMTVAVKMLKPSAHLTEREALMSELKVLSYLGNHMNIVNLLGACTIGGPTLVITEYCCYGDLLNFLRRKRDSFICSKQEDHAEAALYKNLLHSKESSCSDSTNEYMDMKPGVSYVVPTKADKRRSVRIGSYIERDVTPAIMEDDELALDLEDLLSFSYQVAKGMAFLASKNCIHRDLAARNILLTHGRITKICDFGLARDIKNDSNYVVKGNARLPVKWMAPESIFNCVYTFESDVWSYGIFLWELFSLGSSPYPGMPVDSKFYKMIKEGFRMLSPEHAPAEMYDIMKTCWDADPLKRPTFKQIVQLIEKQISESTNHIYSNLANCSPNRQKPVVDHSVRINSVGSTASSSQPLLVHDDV
# Flt1, sequence (P17948 27-1338): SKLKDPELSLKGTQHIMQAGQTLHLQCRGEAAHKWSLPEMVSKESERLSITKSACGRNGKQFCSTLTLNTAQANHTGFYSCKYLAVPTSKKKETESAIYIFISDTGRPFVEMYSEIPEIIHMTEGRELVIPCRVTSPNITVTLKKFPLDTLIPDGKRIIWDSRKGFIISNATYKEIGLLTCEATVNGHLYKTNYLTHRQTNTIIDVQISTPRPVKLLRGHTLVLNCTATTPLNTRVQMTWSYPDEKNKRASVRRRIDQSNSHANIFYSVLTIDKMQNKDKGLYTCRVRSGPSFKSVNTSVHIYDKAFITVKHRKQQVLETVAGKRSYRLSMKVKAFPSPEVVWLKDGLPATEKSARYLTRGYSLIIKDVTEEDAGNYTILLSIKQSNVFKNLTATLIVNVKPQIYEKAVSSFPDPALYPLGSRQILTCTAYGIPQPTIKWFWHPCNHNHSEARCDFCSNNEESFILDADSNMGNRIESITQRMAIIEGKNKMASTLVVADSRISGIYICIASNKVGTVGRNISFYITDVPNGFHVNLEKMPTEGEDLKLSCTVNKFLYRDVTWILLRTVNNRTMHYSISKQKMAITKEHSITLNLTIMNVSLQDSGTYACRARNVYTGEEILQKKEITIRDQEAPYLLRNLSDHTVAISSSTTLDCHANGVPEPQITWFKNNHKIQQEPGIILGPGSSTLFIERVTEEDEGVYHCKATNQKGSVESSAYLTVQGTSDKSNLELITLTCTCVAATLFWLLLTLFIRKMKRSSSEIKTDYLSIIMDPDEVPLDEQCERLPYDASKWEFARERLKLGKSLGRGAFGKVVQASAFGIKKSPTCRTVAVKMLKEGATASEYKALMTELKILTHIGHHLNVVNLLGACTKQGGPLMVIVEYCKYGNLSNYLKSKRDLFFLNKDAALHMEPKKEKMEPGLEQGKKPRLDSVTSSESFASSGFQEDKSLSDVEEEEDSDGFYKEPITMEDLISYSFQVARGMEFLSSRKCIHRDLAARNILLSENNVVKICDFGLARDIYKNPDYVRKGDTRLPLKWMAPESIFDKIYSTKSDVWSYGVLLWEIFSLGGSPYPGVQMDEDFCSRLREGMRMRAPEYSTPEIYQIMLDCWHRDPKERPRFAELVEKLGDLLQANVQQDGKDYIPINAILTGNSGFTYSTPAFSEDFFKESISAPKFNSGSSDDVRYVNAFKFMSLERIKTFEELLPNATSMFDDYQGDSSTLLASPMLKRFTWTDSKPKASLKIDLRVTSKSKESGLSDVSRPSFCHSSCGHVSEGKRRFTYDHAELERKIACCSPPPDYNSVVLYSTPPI
# T1 sequence (P10721 26-976 V654A): as the sequence (P10721 26-976 V560G) above, with G535V, V629A counted along it
# c-Kit (D816V), sequence (P10721 26-976 D816V): as the sequence (P10721 26-976 V560G) above, with G535V, D791V counted along it
# Wee1, sequence (P30291 whole entry): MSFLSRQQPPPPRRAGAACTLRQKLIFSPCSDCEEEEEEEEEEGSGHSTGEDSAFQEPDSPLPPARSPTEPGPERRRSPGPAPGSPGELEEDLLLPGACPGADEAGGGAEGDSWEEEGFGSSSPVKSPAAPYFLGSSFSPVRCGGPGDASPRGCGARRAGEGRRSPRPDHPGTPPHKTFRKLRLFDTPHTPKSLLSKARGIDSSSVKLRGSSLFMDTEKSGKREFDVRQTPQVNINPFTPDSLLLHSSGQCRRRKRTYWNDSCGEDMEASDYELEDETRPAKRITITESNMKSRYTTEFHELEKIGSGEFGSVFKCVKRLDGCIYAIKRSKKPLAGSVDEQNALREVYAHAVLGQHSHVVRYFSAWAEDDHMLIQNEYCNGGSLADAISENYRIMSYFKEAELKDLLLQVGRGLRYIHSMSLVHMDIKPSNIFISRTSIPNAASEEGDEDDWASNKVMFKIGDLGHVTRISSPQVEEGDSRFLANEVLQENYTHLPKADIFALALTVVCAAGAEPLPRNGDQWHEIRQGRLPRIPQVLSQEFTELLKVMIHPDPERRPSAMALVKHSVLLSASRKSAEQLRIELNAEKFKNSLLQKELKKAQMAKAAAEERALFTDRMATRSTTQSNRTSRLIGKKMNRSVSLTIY
# c-Kit, sequence (P10721 26-976): as the sequence (P10721 26-976 V560G) above, with G535V counted along it
# T3 sequence (Q02763 23-1124 Y897S): as the sequence (Q02763 23-1124 R849W) above, with W827R, Y875S counted along it
# Yes, sequence (P07947 whole entry): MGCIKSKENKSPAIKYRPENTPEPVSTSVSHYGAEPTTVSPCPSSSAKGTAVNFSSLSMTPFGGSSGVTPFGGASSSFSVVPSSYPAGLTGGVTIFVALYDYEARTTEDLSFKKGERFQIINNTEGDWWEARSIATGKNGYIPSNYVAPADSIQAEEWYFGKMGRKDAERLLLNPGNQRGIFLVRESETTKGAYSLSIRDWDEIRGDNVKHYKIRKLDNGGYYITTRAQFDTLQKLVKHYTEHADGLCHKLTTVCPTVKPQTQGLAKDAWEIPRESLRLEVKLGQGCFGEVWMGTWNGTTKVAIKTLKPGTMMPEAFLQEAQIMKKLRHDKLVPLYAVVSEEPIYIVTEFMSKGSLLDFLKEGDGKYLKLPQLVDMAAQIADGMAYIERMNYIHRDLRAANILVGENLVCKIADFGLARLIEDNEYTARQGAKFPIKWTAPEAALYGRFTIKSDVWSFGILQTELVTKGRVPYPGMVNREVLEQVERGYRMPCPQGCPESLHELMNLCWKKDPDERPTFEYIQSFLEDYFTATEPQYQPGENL
# c-Kit (D816H), sequence (P10721 26-976 D816H): as the sequence (P10721 26-976 V560G) above, with G535V, D791H counted along it
# TEK, sequence (Q02763 23-1124): as the sequence (Q02763 23-1124 R849W) above, with W827R counted along it
structure (smiles),measurement,setting,value
"Nc1nc(Nc2ccc3c(c2)CC[C@@H](N2CCCC2)CC3)nn1-c1cc2c(nn1)-c1ccccc1CCC2 [Compound A, 1-(6,7-dihydro-5H-benzo[6,7]cyclohepta[1,2-c]pyridazine-3-yl)-N^3-(7-(S)-(pyrrolidin-1-yl)-6,7,8,9-tetrahydro-5H-benzo[7]annulene-2-yl)-1H-1,2,4-triazole-3,5-diamine]",IC50,c-Kit (V654A),286 nM
same,binding to plasma protein,plasma protein,> 99%
same,Kd,Abl(H396P),57 nM
same,Kd,Abl (T315I),10 nM
same,Kd,TEK,270 nM
same,Kd,Wee1,17 nM
same,Kd,Abl(M351T),104 nM
same,Kd,Flt1,400 nM
same,Kd,Abl(Y253F),18 nM
same,Kd,c-Kit (D816H),63 nM
same,Kd,Ret (V804M),72 nM
same,Kd,Ret (V804L),90 nM
same,Kd,Yes,810 nM
same,Kd,c-Kit (D816V),10.2 nM
same,Kd,Ret,73 nM
same,Kd,Tyro3,> 1000 nM
same,Kd,Stk10,9.2 nM
same,Kd,Flt3 (D835Y),11.2 nM
same,Kd,Flt4,460 nM
same,Kd,Flt3,50 nM
same,Kd,Abl(Q252H),112 nM
same,IC50,c-Kit (V560G),45 nM
same,Kd,c-Kit,104 nM
same,Kd,Abl,52 nM
same,IC50,TEK(Y897S),13 nM
same,IC50,TEK(R849W),22 nM
